Reference: US7709494B2, “4,5-diphenyl-pyrimidinyl-oxy or -mercapto substituted carboxylic acids, method for the production and use thereof as medicaments” (Sanofi-Aventis, priority 2006, dated 2010)

Molecular target: T1, GPCR GPR40 (Homo sapiens, UniProt O14842)
T1 construct: expressed in transfected cells; host or cells: HEK293
Assay: In vitro FLIPR assay with recombinant cells which express the GPCR GPR40 (agonist-induced intracellular Ca2+ change)
Format: cell-based
Conditions: recombinant HEK293 cells expressing GPR40; 100 μM test substance; percentage change relative to control (0%: no test substance; 100%: 10 μM reference agonist linoleic acid)
Method: In vitro FLIPR assay with recombinant cells which express the GPCR GPR40
Function-testing assays were carried out by means of the FLIPR technique (“Fluorescence Imaging Plate Reader”, Molecular Devices Corp.). For this purpose, agonist-induced changes in the intracellular concentration of Ca^2+ in recombinant HEK293 cells which expressed the GPCR. GPR40 were determined.
For the investigations, cells were seeded in 96-well microtiter plates (60 000 cells/well) and allowed to grow overnight. The medium was removed and the cells were incubated in buffer which contained the fluorescent dye fluo-4. After this loading with dye, the cells were washed, test substance was added, and changes in the intracellular Ca^2+ concentration were measured in the FLIPR instrument. Results have been presented as percentage change relative to the control (0%: no test substance added; 100%: 10 μM reference agonist linoleic acid added).

T1 sequence (O14842 whole entry): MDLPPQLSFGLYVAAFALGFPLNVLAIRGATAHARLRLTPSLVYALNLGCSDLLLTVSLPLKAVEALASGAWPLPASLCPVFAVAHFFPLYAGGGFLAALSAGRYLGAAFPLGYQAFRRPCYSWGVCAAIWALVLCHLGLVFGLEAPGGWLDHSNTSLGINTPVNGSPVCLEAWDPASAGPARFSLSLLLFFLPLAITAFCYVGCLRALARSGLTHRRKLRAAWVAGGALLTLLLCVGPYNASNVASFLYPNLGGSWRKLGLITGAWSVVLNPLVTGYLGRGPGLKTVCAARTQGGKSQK

| Compound | % activation @ 100 μM [%] |
| --- | --- |
| O=C(O)C1CC1CCCCCSc1ncc(-c2ccccc2)c(-c2ccccc2)n1 (stereo not drawn) [Example 7, 2-[5-(4,5-Diphenylpyrimidin-2-ylsulfanyl)pentyl]cyclopropanecarboxylic acid] | 101 |
| O=C(O)C1CCC(COc2ncc(-c3ccccc3)c(-c3ccccc3)n2)CC1 (mixture of isomers) [Example 4, Cis/trans-4-(4,5-diphenylpyrimidin-2-yloxymethyl)cyclohexanecarboxylic cid] | 96 |
| O=C(O)[C@H]1CCCC(Oc2ncc(-c3ccccc3)c(-c3ccccc3)n2)C1 (stereo partly drawn) [Example 6, (1S)-3-(4,5-Diphenylpyrimidin-2-yloxy)cyclohexanecarboxylic acid] | 66 |
| O=C(O)[C@H]1CCC[C@@H](COc2ncc(-c3ccccc3)c(-c3ccccc3)n2)C1 [Example 1, (1S,3R)-3-(4,5-Diphenylpyrimidin-2-yloxymethyl)cyclohexanecarboxylic acid] | 74 |
| O=C(O)[C@H]1CC[C@@H](COc2ncc(-c3ccccc3)c(-c3ccccc3)n2)C1 (relative stereo) [Example 3, cis-3-(4,5-Diphenylpyrimidin-2-yloxymethyl)cyclopentanecarboxylic acid] | 76 |
| O=C(O)CC12CC3CC(C1)CC(Sc1ncc(-c4ccccc4)c(-c4ccccc4)n1)(C3)C2 [Example 5, [3-(4,5-Diphenylpyriidin-2-ylsulfanyl)adamantan-1-yl]acetic acid] | 64 |

Continued, values first:

| % activation @ 100 μM [%] | Compound |
| --- | --- |
| 101 | O=C(O)C1CC1CCCCOc1ncc(-c2ccccc2)c(-c2ccccc2)n1 (stereo not drawn) [Example 9, 2-[4-(4,5-Diphenylpyrimidin-2-yloxy)butyl]cyclopropanecarboxylic acid] |
| 91 | cis-(4,5-Diphenylpyrimidin-2-yloxymethyl)cyclohexanecarboxylic acid [Example 2] |
| 5 | CCC(CCC1CC1C(=O)O)Oc1ncc(-c2ccccc2)c(-c2ccccc2)n1 (stereo not drawn) [Example 10, 2-[3-(4,5-Diphenylpyrimidin-2-yloxy)pentyl]cyclopropanecarboxylic acid] |
